Key:
[1] = PK parameters in mouse (IV and PO); type: in vivo; conditions: for PK parameters (mouse): F: 10 mg/kg IV and 10 mg/kg PO; for clearance / half-life: male, Swiss Albino, plasma, IV arm, 10 mg/kg; for clearance: read-out: PK parameters (mouse): Cl; for half-life: read-out: PK parameters (mouse): t1/2
Description: Swiss Albino male mice or Sprague Dawley rats (TCGLS, India) were kept under a 12/12 h light/dark cycle, 22±2° C. temp, 50±20% RH with free access to food and water ad libitum. Mice were selected randomly/based on body weight/age and fasted for 4 h before dosing and until 2 h after dosing. Three mice were used per route of administration. […]
(§1) Blood samples were taken (mice 50 μL, rat 100 μL) at regular timepoints from the saphenous vein (conscious restrained animals) and collected into heparinized capillary tubes and transferred into 0.5 mL microcentrifuge tubes. Samples were processed by centrifugation at 1640 g for 10 min at +4° C. within 30 min of collection and stored at −20° C. until bioanalysis. All samples were mixed with ice-cold acetonitrile containing an internal standard, centrifuged at 4000 rpm for 15 min at 15° C. Supernatant was then half diluted in water and analysed by LCMS/MS analysis to determine analyte peak area/IS peak area (the ratio). Concentration (plasma) of the compounds of the invention was determined by reference to a calibration curve. Pharmacokinetic parameters (Cmax, Tmax, AUC, t1/2, CL, Vd, BA) were calculated using WinNonLin, using non-compartmental analysis (Phoenix, Version 6.3). The pharmacokinetic parameters for compounds shown in Table 2 support that compounds of the invention have pharmacokinetic properties associated with treatment of malaria via the oral route and that compounds have substantially longer half-lives than the reference compound.

[2] = PK parameters in rat (IV and PO); type: in vivo; conditions: for PK parameters (rat): F: 1 mg/kg IV and 3 mg/kg PO; for clearance / half-life: Sprague Dawley, plasma, IV arm, 1 mg/kg; for clearance: read-out: PK parameters (rat): Cl; for half-life: read-out: PK parameters (rat): t1/2
Description: Swiss Albino male mice or Sprague Dawley rats (TCGLS, India) were kept under a 12/12 h light/dark cycle, 22±2° C. temp, 50±20% RH with free access to food and water ad libitum. Mice were selected randomly/based on body weight/age and fasted for 4 h before dosing and until 2 h after dosing. Three mice were used per route of administration. For IV determination (1 mg/kg, dose volume 5 ml/kg) the dose was administered by injection into the lateral tail vein (rats are anaesthetized using 3% v/v isoflurane: oxygen mixture). For PO determination (3 mg/kg, dose volume 10 ml/kg) the dose was administered by oral gavage in conscious animals.
as §1

[3] = Microsomal intrinsic clearance, human liver microsomes; type: in vitro ADME; conditions: human liver microsomes (pooled), pH 7.4, 45 min, NADPH
Description: (§2) The compounds of the invention (1 μM) were incubated in suspension with human (rat or mouse) liver microsomes pooled from multiple donors (>10) and samples taken at 5 time points over the course of a 45 min experiment and analysed by LC MS/MS. Microsomes (final protein concentration 0.5 mg/mL), 0.1 M phosphate buffer pH 7.4 and test compound (final substrate concentration 1 μM; final DMSO concentration 0.25%) were pre-incubated at 37° C. prior to the addition of NADPH (final concentration 1 mM) to initiate the reaction. A minus cofactor control incubation was included for each compound tested where 0.1 M phosphate buffer pH 7.4 is added instead of NADPH (minus NADPH). All incubations were performed in duplicate for each test compound and the results averaged. Each compound is incubated for 0, 5, 15, 30 and 45 min. The control (minus NADPH) was incubated for 45 min only. The reactions were stopped by transferring incubate into acetonitrile at the appropriate time points, in a 1:3 ratio.
(§3) The termination plates were centrifuged at 3,000 rpm for 20 min at 4° C. to precipitate the protein. Following protein precipitation, the sample supernatants were combined in cassettes of up to 4 compounds, internal standard added and samples analysed by LC-MS/MS. From a plot of ln peak area ratio (compound peak area/internal standard peak area) against time, the gradient of the line is determined. Subsequently, half-life (t½) and intrinsic clearance (CLint) are calculated using the equations below: Elimination rate constant (k)=(−gradient) Half-life (t1/2)(min)=0.693/k Intrinsic clearance (i.e. CLint)(μL/min/mg protein)=V×0.693/t1/2 where V=Incubation volume (μL)/Microsomal protein (mg)
(§4) Verapamil and dextromethorphan were included in the assay as controls and if the values for these compounds were not within the specified limits the results were rejected and the experiment repeated.

[4] = tested on: Plasmodium falciparum (3D7); test: In-vitro potency against P. falciparum (3D7 strain), SYBR Green growth inhibition; type: cell-based; conditions: P. falciparum 3D7, asexual intraerythrocytic stage, SYBR Green fluorescence
Description: Cultures of the widely-used malaria reference strain of chloroquine-sensitive Plasmodium falciparum (3D7) were maintained in a 1.25% suspension of human red blood cells cultured in RPMI 1640 medium (pH 7.3) supplemented with 0.5% Albumax II (Gibco Life Technologies, San Diego, CA), 12 mM sodium bicarbonate, 0.2 mM hypoxanthine, and 20 mg/L gentamicin at 37° C., in an atmosphere of 1% O2, 3% CO2 with a balance of nitrogen (Human malaria parasites in continuous culture. Trager W et al., 1976, Science, 193: 673-675). Growth inhibition was quantified using a fluorescence assay utilising the binding of SYBR Green (Novel, rapid, and inexpensive cell-based quantification of antimalarial drug efficacy. Bennett T. N. et al., 2004, Antimicrob. Agents Chemother., 48: 1807-1810) to double stranded DNA, which emits a fluorescent signal at 528 nm after excitation at 485 nm. Mefloquine was used as a drug control to monitor the quality of the assay (Z′=0.6 to 0.8, where Z′ is a measure of the discrimination between the positive and negative controls on a screen plate). Hits were confirmed by full-potency curves with dose-response curves determined from a minimum of 3 independent experiments. Compound bioactivity was expressed as EC50, the effective concentration of compound causing 50% parasite death. All data were processed using IDBS ActivityBase. Raw data was converted into percent inhibition through linear regression by setting the high inhibition control as 100% and the no inhibition control as 0%. Quality control criteria for passing plates were as follows: z′>0.5, S:B>3, % CV(no inhibition control)<15. The formula used to calculate z′ is
Curve fitting was carried out using the following 4 parametric equation:
where A=% inhibition at bottom, B=% inhibition at top, C=EC50, D=slope, x=inhibitor concentration and y=% inhibition. If curve definition was poor, B was fixed to 100.

[5] = Microsomal intrinsic clearance, rat liver microsomes; type: in vitro ADME; conditions: rat liver microsomes (pooled), pH 7.4, 45 min, NADPH
Description: as §2, §3, §4

[6] = Microsomal intrinsic clearance, mouse liver microsomes; type: in vitro ADME; conditions: mouse liver microsomes (pooled), pH 7.4, 45 min, NADPH
Description: as §2, §3, §4

SMILES | PK parameters (mouse): F [1] | clearance [1] [L/h/kg] | half-life [1] [h] | PK parameters (rat): F [2] | clearance [2] [L/h/kg] | half-life [2] [h] | microsomal CLint at 1 μM [3] [µL/min/mg] | EC50 [4] [µM] | microsomal CLint at 1 μM [5] [µL/min/mg] | microsomal CLint at 1 μM [6] [µL/min/mg]
N#Cc1cc(NC(=O)[C@H]2c3ccccc3C(=O)N(CC(F)(F)F)[C@@H]2c2cccnc2)ccc1F [(+) SJ-733, 4-Isoquinolinecarboxamide, N-(3-cyano-4-fluorophenyl)-1,2,3,4-tetrahydro-1-oxo-3-(3-pyridinyl)-2-(2,2,2-trifluoroethyl)-, (3S,4S)-, reference compound] | F = 66% | 4.2 | 1.1 | F = 75% | 0.8 | 7.7 | 140 | 0.145 | < 6 | 37
N#Cc1cc(NC(=O)[C@H]2c3ccccc3C(=O)N(CC(F)(F)F)[C@@H]2c2ccc(OC3CC3)nc2)ccc1F (single isomer, unassigned) [(1a)] | F = 79% | 0.13 | 17 | F = 107% | 0.06 | 26 | < 3 | 0.019 | < 10 | < 10
N#Cc1cc(NC(=O)[C@H]2c3ccccc3C(=O)N(CC(F)(F)F)[C@@H]2c2cnc(C(F)(F)F)nc2)ccc1F [(9a), (3S,4S)—N-(3-cyano-4-fluorophenyl)-1-oxo-2-(2,2,2-trifluoroethyl)-3-(2-(trifluoromethyl)pyrimidin-5-yl)-1,2,3,4-tetrahydroisoquinoline-4-carboxamide] | F = 92% | 0.19 | 14 | F = 65% | 0.08 | 22 | < 3 | 0.103 | < 10 | 10.1

Source: US12509439B2, “Anti-malarial agents” (UNIVERSITY OF KENTUCKY RESEARCH FOUNDATION, priority 2020, dated 2025)
